Here are results for eight compounds from patent publication US20210040073A1, “AZABICYCLO-SUBSTITUTED TRIAZOLE DERIVATIVE, PREPARATION METHOD THEREOF, AND APPLICATION OF SAME IN MEDICINE” (Jiangsu Hengrui Medicine Co., Ltd., priority 2016, published 2021).

SMILES strings stand for the structures.

One series concerns the target T1, human V1aR (Homo sapiens, UniProt P37288).
T1 construct: expressed in transfected cells
Kind of series: Inhibition activity on human V1aR (Fluo-4 calcium assay, HEK293/human V1aR stably transfected cells, vasopressin 3 nM). The format is cell-based. Conditions: calcium signal. As to the method: The inhibition effect of the compounds of the present invention on the activity of human V1aR protein expressed in HEK293/human V1aR stably transfected cells was determined by the following experimental method:
The pcDNA3.1-V1aR plasmid was transferred into HEK293 cells with the Lipofectamine® 3000 transfection reagent; G418 was added on the next day to screen, and monoclonal cell lines were selected.
(§1) HEK293/human V1aR stably transfected cells were inoculated in a 96-well plate with an inoculation density of 25,000 cells/well one day in advance. On the next day, a loading buffer containing Fluo-4 dye was formulated using the reagents in the Fluo-4 NW calcium assay kit, and the culture medium was then removed; 100 μl of the loading buffer containing Fluo-4 dye were added to each well, and the plate was incubated at 37° C. for 30 minutes. After that, the plate was moved to room temperature and equilibrated for 10 minutes. The compounds were formulated into concentration gradients of 10^6, 10^5, 10^4, 10^3, 10^2 and 10^1 nM. 1 μl of the compounds in each concentration was added to each well, and the plate was incubated at room temperature for 10 minutes. […] IC50 values of the compounds were calculated by Graphpad prism software using fluorescence signals corresponding to different concentrations.
The inhibition activity of the compounds of the present invention on human V1aR was determined by the above test, and the obtained IC50 values are shown in Table 2.

The next series concerns the target T2, human V1bR (Homo sapiens, UniProt P47901).
T2 construct: expressed in transfected cells; host or cells: HEK293 (G418-selected pool)
T2 sequence (P47901 1-424): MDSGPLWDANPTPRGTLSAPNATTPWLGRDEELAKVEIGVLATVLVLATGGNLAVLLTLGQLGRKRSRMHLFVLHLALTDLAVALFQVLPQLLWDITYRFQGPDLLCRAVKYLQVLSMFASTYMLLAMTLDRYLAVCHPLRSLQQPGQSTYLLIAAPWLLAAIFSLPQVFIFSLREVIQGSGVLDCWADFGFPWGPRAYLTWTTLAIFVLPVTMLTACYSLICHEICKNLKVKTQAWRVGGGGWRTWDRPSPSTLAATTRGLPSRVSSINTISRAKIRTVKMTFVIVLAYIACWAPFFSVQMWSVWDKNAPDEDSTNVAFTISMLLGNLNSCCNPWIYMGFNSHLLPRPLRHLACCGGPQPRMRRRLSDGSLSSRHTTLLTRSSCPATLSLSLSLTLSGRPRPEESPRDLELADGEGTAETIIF
The series is described as follows: Inhibition activity on human V1bR (Fluo-4 calcium assay, HEK293/human V1bR pool cells, vasopressin 3 nM). Conditions: calcium signal. Type of series: cell-based. As to the method: The inhibition effect of the compounds of the present invention on the activity of human V1bR protein expressed in HEK293/human V1bR cells was determined by the following experimental method:
The pcDNA3.1-V1bR plasmid was transferred into HEK293 cells with the Lipofectamine® 3000 transfection reagent; G418 was added on the next day, and the HEK293/human V1bR pool cell lines were obtained.
as §1, with “V1bR pool” for “V1aR stably transfected”

The target in the next series is T3, human V2R (Homo sapiens, UniProt P30518).
T3 construct: expressed in transfected cells; host or cells: HEK293 (G418-selected pool)
Kind of series: Inhibition activity on human V2R (cAMP HTRF assay, HEK293/human V2R pool cells, vasopressin). Type of series: cell-based. How it is done:
The inhibition effect of the compounds of the present invention on the activity of human V2R protein expressed in HEK293/human V2R cells was determined by the following experimental method:
The pcDNA3.1-V2R plasmid was transferred into HEK293 cells with the Lipofectamine® 3000 transfection reagent; G418 was added on the next day, and the HEK293/human V2R pool cell lines were obtained.
HEK293/human V2R pool cells were digested with the cell dissociation solution (enzyme-free), thereby dissociating the cells from the cell culture dish into individual cells. After completion, the cell solution was blown well, and centrifuged to remove the supernatant. The cells were re-suspended in the test buffer 1 (1×HBSS+20 mM HEPES+0.1% BSA) and counted. The cell density was adjusted to 1250 cells/5 μl, i.e., 2.5*10^5/ml.
The compounds were formulated into a series of concentrations of 20 mM, 6.67 mM, 2.22 mM, 0.74 mM, 0.25 mM, 0.08 mM, 27.4 μM, 9.14 μM, 3.05 μM, 1.02 μM, 0.34 μM and 0 μM (DMSO) with pure DMSO. The compounds were then formulated into a 4-fold use concentration with the test buffer 2 (test buffer 1+1 mM IBMX).
Agonist: 460 μM vasopressin was used as the mother liquor, formulated as a 2 μM solution with DMSO, which was then diluted to a 0.5 nM solution with the test buffer 2.
Standard: The first point was 20 μl of a stock solution (2848 nM), which was diluted successively to a total of eleven concentrations in a 4-fold concentration gradient with the test buffer 1 from the second point.
1. The well-mixed cells were added to a 384-well plate (5 μl/well) without changing the tip.
2. The test compounds and positive compound formulated were added (2.5 μl/well), and the tips were changed.
3. The plate was centrifuged at 1000 rpm for 1 min, shaken for 30 sec to mix well, and incubated at room temperature for 30 min.
4. The standard curve wells were added with the test buffer 2 (5 μl/well).
5. The agonist formulated was added (2.5 μl/well), and the tips were changed; the plate was centrifuged at 1000 rpm for 1 min, shaken for 30 sec to mix well, and incubated at room temperature for 30 min.
6. cAMP-d2 (a component in the cAMP dynamic 2 kit) and Anti-cAMP-Eu-Cryptate (a component in the cAMP dynamic 2 kit) were formulated in the dark, which were then mixed well with cAMP lysate (a component in the cAMP dynamic 2 kit) in a ratio of 1:4. Each well was added with the formulated cAMP-d2 solution (5 μl/well), followed by addition of Anti-cAMP-Eu-Cryptate (5 μl/well). The plate was shaken for 30 sec to mix well, and incubated in the dark at room temperature for 1 h.
4) Plate reading: The HTRF signals were read by the PheraStar multi-function microplate reader.
The data in this test was processed using the data processing software Graphpad Prism.
The inhibition activity of the compounds of the present invention on human V2R was determined by the above test, and the obtained IC50 values are shown in Table 4.
In general terms: In TR-FRET formats the signal depends on donor and acceptor labels being close together.

In a further series the target is T4, human OTR (Homo sapiens, UniProt P30559).
T4 construct: expressed in transfected cells
T4 sequence (P30559 1-389): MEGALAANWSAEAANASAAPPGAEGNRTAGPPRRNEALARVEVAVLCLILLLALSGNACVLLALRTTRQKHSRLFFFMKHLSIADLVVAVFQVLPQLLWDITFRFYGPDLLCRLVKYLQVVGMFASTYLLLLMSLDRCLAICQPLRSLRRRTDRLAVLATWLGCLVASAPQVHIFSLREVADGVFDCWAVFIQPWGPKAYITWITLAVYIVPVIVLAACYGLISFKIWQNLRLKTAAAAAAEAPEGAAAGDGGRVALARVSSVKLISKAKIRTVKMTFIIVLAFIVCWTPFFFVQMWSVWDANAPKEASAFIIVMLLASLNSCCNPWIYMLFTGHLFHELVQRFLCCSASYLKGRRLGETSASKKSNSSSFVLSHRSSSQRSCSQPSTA
Kind of series: Inhibition activity on human OTR (Fluo-4 calcium assay, HEK293/human OTR stably transfected cells, oxytocin 3 nM). The format is cell-based. To be noted: calcium signal. How it is done: The inhibition effect of the compounds of the present invention on the activity of human OTR protein expressed in HEK293/human OTR stably transfected cells was determined by the following experimental method:
The pcDNA3.1-hOTR plasmid was transferred into HEK293 cells with the Lipofectamine® 3000 transfection reagent; G418 was added on the next day to screen, and monoclonal cell lines were selected.
HEK293/human OTR stably transfected cells were inoculated in a 96-well plate with an inoculation density of 25,000 cells/well one day in advance. On the next day, a loading buffer containing Fluo-4 dye was formulated using the reagents in the Fluo-4 NW calcium assay kit, and the culture medium was then removed; 100 μl of the loading buffer containing Fluo-4 dye were added to each well, and the plate was incubated at 37° C. for 30 minutes. After that, the plate was moved to room temperature and equilibrated for 10 minutes. The compounds were formulated into concentration gradients of 10^6, 10^5, 10^4, 10^3, 10^2 and 10^1 nM. 1 μl of the compounds in each concentration was added to each well, and the plate was incubated at room temperature for 10 minutes. 50 μl of oxytocin polypeptide (3 nM) were automatically added by the machine, and the values were immediately detected at 494/516 nM by the flexstation 3 microplate reader. IC50 values of the compounds were calculated by Graphpad prism software using fluorescence signals corresponding to different concentrations.
The inhibition activity of the compounds of the present invention on human OTR was determined by the above test, and the obtained IC50 values are shown in Table 1.

Series [1] in a line: Pharmacokinetics assay in rats after intragastrical administration. To be noted: both, Sprague-Dawley, rat, plasma, po, 2 mg/kg.
Protocol: Rats were used as test animals. […] The pharmacokinetic behavior of the compounds of the present invention was studied and evaluated in rats.
After an overnight fast, SD rats were administered intragastrically the test compounds at an administration dosage of 2.0 mg/kg and an administration volume of 10.0 mL/kg.
0.2 mL of blood was taken from the orbital sinus before administration and at 0.5, 1.0, 2.0, 4.0, 6.0, 8.0, 11.0 and 24.0 hours after administration. The samples were stored in heparinized tubes, and centrifuged for 10 minutes at 4° C. at 3,500 rpm to separate the blood plasma. The plasma samples were stored at −20° C. The rats were fed 2 hours after administration.
The content of the test compounds in the plasma of rats after intragastrical administration of the test compounds at different concentrations was determined: 25 μL of rat plasma at each time after administration was taken, added with 50 μL of the internal standard solution of camptothecin (100 ng/mL) and 200 μL of acetonitrile, vortex-mixed for 5 minutes, and centrifuged for 10 minutes (4000 rpm). 1.0 μL of the supernatant was taken from the plasma samples for LC/MS/MS analysis.

T3 sequence (P30518 whole entry): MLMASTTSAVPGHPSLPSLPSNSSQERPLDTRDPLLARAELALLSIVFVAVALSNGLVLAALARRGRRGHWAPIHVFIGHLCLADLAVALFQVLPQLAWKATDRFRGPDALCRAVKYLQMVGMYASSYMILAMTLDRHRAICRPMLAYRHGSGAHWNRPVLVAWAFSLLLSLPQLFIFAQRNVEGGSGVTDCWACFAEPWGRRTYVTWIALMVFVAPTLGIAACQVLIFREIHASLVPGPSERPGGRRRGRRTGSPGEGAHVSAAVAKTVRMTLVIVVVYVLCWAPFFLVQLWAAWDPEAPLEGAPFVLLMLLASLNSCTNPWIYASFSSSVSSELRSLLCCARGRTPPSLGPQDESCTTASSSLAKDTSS
T1 sequence (P37288 whole entry): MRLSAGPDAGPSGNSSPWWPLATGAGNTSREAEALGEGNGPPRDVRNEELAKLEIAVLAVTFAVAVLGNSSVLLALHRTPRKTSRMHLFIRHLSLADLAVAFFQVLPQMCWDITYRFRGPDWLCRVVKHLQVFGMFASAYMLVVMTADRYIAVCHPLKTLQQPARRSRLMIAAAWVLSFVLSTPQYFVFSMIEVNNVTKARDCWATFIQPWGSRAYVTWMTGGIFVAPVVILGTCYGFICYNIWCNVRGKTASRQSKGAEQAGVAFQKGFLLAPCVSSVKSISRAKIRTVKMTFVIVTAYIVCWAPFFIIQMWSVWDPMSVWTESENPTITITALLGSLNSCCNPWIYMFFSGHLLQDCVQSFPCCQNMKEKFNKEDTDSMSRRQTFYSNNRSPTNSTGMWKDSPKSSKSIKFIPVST

By IC50 is commonly meant the concentration that gives 50% inhibition. For `COc1ccc(-n2c(C)nnc2N2C[C@@H]3C[C@]3(c3ccc(F)cc3Cl)C2)cn1` [Example 7, (1S,5R)-1-(2-Chloro-4-fluorophenyl)-3-(4-(6-methoxypyridin-3-yl)-5-methyl-4H-1,2,4-triazol-3-yl)-3-azabicyclo[3.1.0]hexane], the results for the half-maximal inhibitory concentration (IC50) at human V1aR, at human V1bR and against human V2R were 2 µM, 12.4 µM and 90 µM, respectively.
The term AUC denotes concentration integrated over time. Higher therefore signals high exposure. A word on the CL/F: it is clearance divided by bioavailability, as obtained after extravascular dosing. What is called Cmax is the maximum level reached in the sampled fluid or tissue. Usually MRT stands for the average time that molecules of a dose stay in the body. As usually defined, the Vd/F is the apparent distribution volume after extravascular dosing. One may read the half-life as the time in which the quantity being followed falls by half. Read a high half-life as slow decline. Regarding `COCc1nnc(N2CC3CC3(c3ccc(F)cc3Cl)C2)n1-c1ccc(OC)nc1` (stereo not drawn) [Example 8, 1-(2-Chloro-4-fluorophenyl)-3-(5-(methoxymethyl)-4-(6-methoxypyridin-3-yl)-4H-1,2,4-triazol-3-yl)-3-azabicyclo[3.1.0]hexane], the IC50 at human OTR was 0.023 µM. Moreover, the half-maximal inhibitory concentration (IC50) on human V1aR turned out to be 3 µM. Further, the IC50 on human V1bR is 43.3 µM. In series [1], this compound came in with an area under the curve (AUC) of 1980 ± 1020 ng·h/mL, a CL/F of 23.3 ± 18 mL/min/kg, a maximum concentration (Cmax) of 635 ± 273 ng/mL and an MRT of 2.18 ± 0.24 h. Besides, in series [1], the Vd/F was found to be 1.94 ± 0.983 L/kg and the half-life was 1.08 ± 0.21 h.
In the case of `COc1ccc(-n2c(COC3CCOCC3)nnc2N2C[C@@H]3C[C@]3(c3ccc(F)cc3Cl)C2)cn1` [Example 2, (1S,5R)-1-(2-Chloro-4-fluorophenyl)-3-(4-(6-methoxypyridin-3-yl)-5-(((tetrahydro-2H-pyran-4-yl)oxy)methyl)-4H-1,2,4-triazol-3-yl)-3-azabicyclo[3.1.0]hexane], the IC50 on human V1aR was 4.7 µM.
For the compound `COc1ccc(-n2c(COC(F)F)nnc2N2C[C@@H]3C[C@]3(c3ccc(F)cc3Cl)C2)cn1` [Example 11, (1S,5R)-1-(2-Chloro-4-fluorophenyl)-3-(5-((difluoromethoxy)methyl)-4-(6-methoxypyridin-3-yl)-4H-1,2,4-triazol-3-yl)-3-azabicyclo[3.1.0]hexane], the IC50 at human OTR turned out to be 0.001 µM. Moreover, at human V1bR, the IC50 turned out to be 7.8 µM. The compound further showed an IC50 against human V2R of 6.8 µM. For the same compound, in series [1], the AUC is 3980 ± 2970 ng·h/mL, the apparent clearance (CL/F) turned out to be 12.6 ± 8.03 mL/min/kg, the peak concentration (Cmax) was 405 ± 110 ng/mL and the mean residence time MRT is 5.82 ± 2.73 h. In series [1], this compound gave a Vd/F of 2.46 ± 0.706 L/kg and a half-life of 2.86 ± 1.27 h.
As to `[2H]C([2H])([2H])OCc1nnc(N2C[C@@H]3C[C@]3(c3ccc(F)cc3Cl)C2)n1-c1ccc(OC)nc1` [Example 14, (1S,5R)-1-(2-Chloro-4-fluorophenyl)-3-(5-((methoxy-d3)methyl)-4-(6-methoxypyridin-3-yl)-4H-1,2,4-triazol-3-yl)-3-azabicyclo[3.1.0]hexane], the IC50 at human OTR turned out to be 0.068 µM; on human V1bR, 20.5 µM; against human V2R it was 10.4 µM.
Turning to `COc1ccc(-n2c(C(F)F)nnc2N2C[C@@H]3C[C@]3(c3ccc(F)cc3Cl)C2)cn1` [Example 13, (1S,5R)-1-(2-Chloro-4-fluorophenyl)-3-(5-(difluoromethyl)-4-(6-methoxypyridin-3-yl)-4H-1,2,4-triazol-3-yl)-3-azabicyclo[3.1.0]hexane], the IC50 at human OTR amounted to 0.052 µM; at human V1aR it was 1.9 µM.
As to `COCc1nnc(N2C[C@H]3C[C@@]3(c3ccc(F)cc3Cl)C2)n1-c1ccc(OC)nc1` [Example 10, (1R,5S)-1-(2-Chloro-4-fluorophenyl)-3-(5-(methoxymethyl)-4-(6-methoxypyridin-3-yl)-4H-1,2,4-triazol-3-yl)-3-azabicyclo[3.1.0]hexane], on human OTR, the IC50 was found to be 0.624 µM.
Turning to `COCc1nnc(N2C[C@@H]3C[C@]3(c3ccc(F)cc3Cl)C2)n1-c1ccc2c(c1)OCO2` [Example 5, (1S,5R)-3-(4-(Benzo[d][1,3]dioxol-5-yl)-5-(methoxymethyl)-4H-1,2,4-triazol-3-yl)-1-(2-chloro-4-fluorophenyl)-3-azabicyclo[3.1.0]hexane], the IC50 at human OTR came out at 0.131 µM; on human V1aR, 1 µM.
